Test results taken from publication PMC6572294, “Repurposing of FDA-Approved NSAIDs for DPP-4 Inhibition as an Alternative for Diabetes Mellitus Treatment: Computational and in Vitro Study” (Pharmaceutics, 2019).

Target: T1, human dipeptidyl peptidase-4 (DPP-4) (Homo sapiens, UniProt P27487)
T1 construct: gene DPP4
Test: fluorogenic Gly-Pro cleavage assay, human DPP-4 inhibitor screening kit (Sigma-Aldrich)
Format: biochemical

T1 sequence (P27487 39-766): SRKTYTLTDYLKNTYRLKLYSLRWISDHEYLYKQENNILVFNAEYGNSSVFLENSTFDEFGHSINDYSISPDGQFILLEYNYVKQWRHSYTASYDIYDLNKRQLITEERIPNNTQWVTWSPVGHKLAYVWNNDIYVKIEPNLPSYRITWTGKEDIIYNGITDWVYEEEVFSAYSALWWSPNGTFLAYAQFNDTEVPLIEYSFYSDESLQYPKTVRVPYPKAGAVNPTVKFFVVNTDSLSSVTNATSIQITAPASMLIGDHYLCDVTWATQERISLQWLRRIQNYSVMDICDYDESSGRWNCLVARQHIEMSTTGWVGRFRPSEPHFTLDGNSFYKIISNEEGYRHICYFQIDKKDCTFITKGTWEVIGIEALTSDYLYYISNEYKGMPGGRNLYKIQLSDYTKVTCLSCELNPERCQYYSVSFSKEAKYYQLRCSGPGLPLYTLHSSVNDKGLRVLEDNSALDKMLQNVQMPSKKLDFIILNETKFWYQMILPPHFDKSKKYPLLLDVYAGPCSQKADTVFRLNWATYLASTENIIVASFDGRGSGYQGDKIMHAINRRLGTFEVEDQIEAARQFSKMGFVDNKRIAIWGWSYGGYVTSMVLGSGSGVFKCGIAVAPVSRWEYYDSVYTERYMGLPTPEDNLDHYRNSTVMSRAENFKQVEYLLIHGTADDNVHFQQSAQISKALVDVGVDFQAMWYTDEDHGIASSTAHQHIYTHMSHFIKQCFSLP

## CN1C(C(=O)Nc2ccccn2)=C(O)c2ccccc2S1(=O)=O [piroxicam]
  IC50: 9.9 µM
